Paper PMC6199744, “Development of Chemical Proteomics for the Folateome and Analysis of the Kinetoplastid Folateome” (ACS Infectious Diseases, 2018)
Like-named read-outs stand apart in the source and are kept apart here.

How the values were obtained:
Type in all cases: binding
[1] = molecular target: T1, HeLa cell extract proteins (Homo sapiens, UniProt P61769)
T1 construct: endogenous in cells; host or cells: HeLa cell extract

[2] = molecular target: T2, HeLa cell extract proteins (Homo sapiens, UniProt P31942)
T2 construct: endogenous in cells; host or cells: HeLa cell extract
T2 sequence (P31942 1-346): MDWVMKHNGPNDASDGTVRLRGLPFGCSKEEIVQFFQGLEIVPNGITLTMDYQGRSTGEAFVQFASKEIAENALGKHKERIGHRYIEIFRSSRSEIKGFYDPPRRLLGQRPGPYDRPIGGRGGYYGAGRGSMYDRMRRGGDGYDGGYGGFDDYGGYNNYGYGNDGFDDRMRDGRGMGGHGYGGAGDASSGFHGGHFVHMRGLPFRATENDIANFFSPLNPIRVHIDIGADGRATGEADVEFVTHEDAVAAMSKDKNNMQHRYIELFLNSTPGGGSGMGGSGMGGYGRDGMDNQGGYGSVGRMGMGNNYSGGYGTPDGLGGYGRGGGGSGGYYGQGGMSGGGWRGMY

[3] = molecular target: T3, HeLa cell extract proteins (Homo sapiens, UniProt P16152)
T3 construct: endogenous in cells; host or cells: HeLa cell extract
T3 sequence (P16152 1-277): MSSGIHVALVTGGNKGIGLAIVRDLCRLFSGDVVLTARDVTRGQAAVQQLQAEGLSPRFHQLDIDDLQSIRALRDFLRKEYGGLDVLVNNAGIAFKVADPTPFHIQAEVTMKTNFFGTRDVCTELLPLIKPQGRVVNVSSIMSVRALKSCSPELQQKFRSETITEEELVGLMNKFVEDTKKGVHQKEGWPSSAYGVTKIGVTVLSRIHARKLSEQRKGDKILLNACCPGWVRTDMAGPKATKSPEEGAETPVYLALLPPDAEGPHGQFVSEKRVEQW

[4] = molecular target: T4, HeLa cell extract proteins (Homo sapiens, UniProt P62826)
T4 construct: endogenous in cells; host or cells: HeLa cell extract

[5] = molecular target: T5, HeLa cell extract proteins (Homo sapiens, UniProt Q9NVI1)
T5 construct: endogenous in cells; host or cells: HeLa cell extract
T5 sequence (Q9NVI1 1-1328): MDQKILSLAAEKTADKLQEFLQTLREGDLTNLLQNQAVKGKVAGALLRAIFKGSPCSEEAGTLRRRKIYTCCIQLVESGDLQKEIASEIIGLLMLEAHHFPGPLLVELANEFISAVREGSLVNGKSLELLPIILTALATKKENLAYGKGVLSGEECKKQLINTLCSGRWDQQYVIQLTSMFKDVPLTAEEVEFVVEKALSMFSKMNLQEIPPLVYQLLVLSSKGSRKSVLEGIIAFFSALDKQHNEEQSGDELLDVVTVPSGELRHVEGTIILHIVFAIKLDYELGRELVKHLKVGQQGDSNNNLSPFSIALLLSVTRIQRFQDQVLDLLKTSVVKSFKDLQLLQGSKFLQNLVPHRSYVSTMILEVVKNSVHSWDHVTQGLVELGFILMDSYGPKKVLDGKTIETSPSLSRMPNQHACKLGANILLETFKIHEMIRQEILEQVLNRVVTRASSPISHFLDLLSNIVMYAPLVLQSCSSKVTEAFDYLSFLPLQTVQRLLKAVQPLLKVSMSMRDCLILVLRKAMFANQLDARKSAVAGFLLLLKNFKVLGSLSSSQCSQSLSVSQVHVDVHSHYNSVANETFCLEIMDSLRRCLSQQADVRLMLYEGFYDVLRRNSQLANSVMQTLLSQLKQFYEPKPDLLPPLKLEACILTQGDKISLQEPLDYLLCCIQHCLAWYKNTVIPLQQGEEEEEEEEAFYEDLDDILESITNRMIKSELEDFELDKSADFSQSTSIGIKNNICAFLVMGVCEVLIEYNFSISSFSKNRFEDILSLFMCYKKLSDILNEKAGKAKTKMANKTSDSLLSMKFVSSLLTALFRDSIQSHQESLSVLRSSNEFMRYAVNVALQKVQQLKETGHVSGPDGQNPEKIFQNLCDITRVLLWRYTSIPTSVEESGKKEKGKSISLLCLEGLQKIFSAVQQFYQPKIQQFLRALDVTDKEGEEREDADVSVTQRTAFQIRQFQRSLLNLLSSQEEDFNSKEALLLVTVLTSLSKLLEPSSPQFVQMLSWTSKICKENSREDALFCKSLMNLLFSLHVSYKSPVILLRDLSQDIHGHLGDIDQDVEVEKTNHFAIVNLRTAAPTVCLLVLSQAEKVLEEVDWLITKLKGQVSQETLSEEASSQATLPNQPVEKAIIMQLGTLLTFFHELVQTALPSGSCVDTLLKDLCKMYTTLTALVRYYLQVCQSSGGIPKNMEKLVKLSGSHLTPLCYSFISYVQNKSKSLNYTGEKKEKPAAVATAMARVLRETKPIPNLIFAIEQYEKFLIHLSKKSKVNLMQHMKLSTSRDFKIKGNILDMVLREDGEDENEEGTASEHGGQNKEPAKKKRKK

[6] = molecular target: T6, HeLa cell extract proteins (Homo sapiens, UniProt Q86X55)
T6 construct: endogenous in cells; host or cells: HeLa cell extract
T6 sequence (Q86X55 1-608): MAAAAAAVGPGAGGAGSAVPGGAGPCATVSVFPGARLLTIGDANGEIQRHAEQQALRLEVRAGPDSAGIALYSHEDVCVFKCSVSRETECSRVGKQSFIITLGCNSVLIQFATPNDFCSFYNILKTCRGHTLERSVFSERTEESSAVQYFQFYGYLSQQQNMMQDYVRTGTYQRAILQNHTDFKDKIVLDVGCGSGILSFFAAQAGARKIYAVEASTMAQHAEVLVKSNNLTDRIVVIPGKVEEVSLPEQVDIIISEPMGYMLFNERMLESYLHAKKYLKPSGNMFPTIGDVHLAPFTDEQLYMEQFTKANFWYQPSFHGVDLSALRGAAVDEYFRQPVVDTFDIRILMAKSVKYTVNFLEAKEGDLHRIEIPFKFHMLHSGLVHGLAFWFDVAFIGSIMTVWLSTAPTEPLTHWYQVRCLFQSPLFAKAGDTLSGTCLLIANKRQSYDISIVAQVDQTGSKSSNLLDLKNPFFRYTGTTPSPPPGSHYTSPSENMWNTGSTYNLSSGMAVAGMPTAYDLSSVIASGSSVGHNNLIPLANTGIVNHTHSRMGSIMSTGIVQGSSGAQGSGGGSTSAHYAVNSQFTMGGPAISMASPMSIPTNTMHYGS

[7] = HeLa, protein B2M (CDNA FLJ57067, HIGHLY SIMILAR TO BETA-2-MICROGLOBULIN)

T1 sequence (P61769 21-119): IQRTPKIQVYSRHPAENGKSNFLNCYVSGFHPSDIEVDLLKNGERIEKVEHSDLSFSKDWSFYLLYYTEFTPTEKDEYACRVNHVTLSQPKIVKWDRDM

Structure (SMILES): Nc1nc2c(c(=O)[nH]1)N(C=O)C(CNc1ccc(C(=O)N[C@@H](CCC(=O)O)C(=O)O)cc1)CN2 (stereo partly drawn) [LEU, leucovorin]
- fold changes relative to vehicle control [1, 7]: 1.24
- fold changes relative to vehicle control ([2]; HeLa, captured protein HNRNPH3): 0.94
- fold changes relative to vehicle control ([3]; protein CBR1, HeLa): 0.81
- fold changes relative to vehicle control ([4]; HeLa, protein RAN): 0.98
- fold changes relative to vehicle control ([5]; HeLa, protein FANCI): 0.87
- fold changes relative to vehicle control ([6]; HeLa, protein CARM1): 0.95

Structure (SMILES): NCCCNc1ccc(C(=O)NC(CCC(=O)O)C(=O)O)cc1 (stereo not drawn) [compound 7]
- fold changes relative to vehicle control [1, 7]: 1.31
- fold changes relative to vehicle control ([2]; HeLa, captured protein HNRNPH3): 1.01
- fold changes relative to vehicle control ([3]; protein CBR1, HeLa): 0.92
- fold changes relative to vehicle control ([4]; HeLa, protein RAN): 0.95
- fold changes relative to vehicle control ([5]; HeLa, protein FANCI): 1.09
- fold changes relative to vehicle control ([6]; HeLa, protein CARM1): 1

Structure (SMILES): CCCCCCOc1cccc(Cc2cnc(N)nc2N)c1 [compound 2]
- fold changes relative to vehicle control ([1]; protein B2M, HeLa): 1.16
- fold changes relative to vehicle control ([2]; protein HNRNPH3, HeLa): 0.97
- fold changes relative to vehicle control ([3]; HeLa, protein CBR1): 1.14
- fold changes relative to vehicle control ([4]; protein RAN, HeLa): 1.8
- fold changes relative to vehicle control ([5]; protein FANCI, HeLa): 1.02
- fold changes relative to vehicle control ([6]; HeLa, protein CARM1): 0.98

Structure (SMILES): CCCCCCOc1ccc(Cc2cnc(N)nc2N)cc1 [compound 1]
- fold changes relative to vehicle control ([1]; protein B2M, HeLa): 1.14
- fold changes relative to vehicle control ([2]; protein HNRNPH3, HeLa): 1.08
- fold changes relative to vehicle control ([3]; HeLa, protein CBR1): 0.89
- fold changes relative to vehicle control ([4]; protein RAN, HeLa): 1.1
- fold changes relative to vehicle control ([5]; protein FANCI, HeLa): 1
- fold changes relative to vehicle control ([6]; HeLa, protein CARM1): 1.02

Structure (SMILES): Nc1nc2cccc(-c3ccccc3)c2n1Cc1ccc(Cl)c(Cl)c1 [compound 3]
- fold changes relative to vehicle control ([1]; protein B2M, HeLa): 1.07
- fold changes relative to vehicle control ([2]; protein HNRNPH3, HeLa): 1.09
- fold changes relative to vehicle control ([3]; HeLa, protein CBR1): 1.02
- fold changes relative to vehicle control ([4]; protein RAN, HeLa): 0.93
- fold changes relative to vehicle control ([5]; protein FANCI, HeLa): 1.19
- fold changes relative to vehicle control ([6]; HeLa, protein CARM1): 0.95

Structure (SMILES): NCCOCCOCC(=O)Nc1nc2ncc(CNc3ccc(C(=O)NC(CCC(=O)O)C(=O)O)cc3)nc2c(=O)[nH]1 (stereo not drawn) [compound 6]
- fold changes relative to vehicle control [1, 7]: 1.37
- fold changes relative to vehicle control ([2]; HeLa, captured protein HNRNPH3): 0.99
- fold changes relative to vehicle control ([3]; protein CBR1, HeLa): 0.89
- fold changes relative to vehicle control ([4]; HeLa, protein RAN): 1.11
- fold changes relative to vehicle control ([5]; HeLa, protein FANCI): 1.11
- fold changes relative to vehicle control ([6]; HeLa, protein CARM1): 0.89

Structure (SMILES): Nc1nc2[nH]cc(CCc3ccc(C(=O)N[C@@H](CCC(=O)O)C(=O)O)cc3)c2c(=O)[nH]1 [PTX, pemetrexed]
- fold changes relative to vehicle control [1]: 1.51
- fold changes relative to vehicle control [2]: 0.94
- fold changes relative to vehicle control [3]: 0.8
- fold changes relative to vehicle control [4]: 1
- fold changes relative to vehicle control [5]: 1.04
- fold changes relative to vehicle control [6]: 0.9
